Literature values as cited in patent publication US20110287437A1, “ASSAYS TO PREDICT CARDIOTOXICITY” (priority 2010, published 2011).

How the values were obtained:
[1] = assessment from public literature and internal data; training set N=19
[2] = treatment of patients; prescribing information

Molecule | Cardiotoxicity [1] | Cardiotoxicity / adverse cardiac effects reported [2]
COc1cc2c(Nc3ccc(Br)cc3F)ncnc2cc1OCC1CCN(C)CC1 [Zactima] | Positive | –
CNC(=O)c1cc(Oc2ccc(NC(=O)Nc3ccc(Cl)c(C(F)(F)F)c3)cc2)ccn1 [Nexavar, sorafenib] | Positive | mentioned in the prescribing information
Cc1nc(Nc2ncc(C(=O)Nc3c(C)cccc3Cl)s2)cc(N2CCN(CCO)CC2)n1 [Sprycel, dasatinib] | Positive | mentioned in the prescribing information
COc1ccc2c(O[C@@H]3C[C@H]4C(=O)N[C@]5(C(=O)O)C[C@H]5/C=C\CCCCC[C@H](NC(=O)OC5CCCC5)C(=O)N4C3)cc(-c3csc(NC(C)C)n3)nc2c1 [BILN 2061] | Positive | –
bevacizumab: bevacizumab (Avastin) | – | mentioned in the prescribing information
COc1cc2ncnc(Nc3ccc(F)c(Cl)c3)c2cc1OCCCN1CCOCC1 [Iressa] | Negative | –
CO[C@H]1C[C@@H]2CC[C@@H](C)[C@@](O)(O2)C(=O)C(=O)N2CCCC[C@H]2C(=O)O[C@H]([C@H](C)C[C@@H]2CC[C@@H](OCCO)[C@H](OC)C2)CC(=O)[C@H](C)/C=C(\C)[C@@H](O)[C@@H](OC)C(=O)[C@H](C)C[C@H](C)/C=C/C=C/C=C/1C [Everolimus] | Positive | –
Cc1cn(-c2cc(NC(=O)c3ccc(C)c(Nc4nccc(-c5cccnc5)n4)c3)cc(C(F)(F)F)c2)cn1 [Nilotinib] | Positive | –
COc1cccc2c1C(=O)c1c(O)c3c(c(O)c1C2=O)C[C@@](O)(C(=O)CO)C[C@@H]3O[C@H]1C[C@H](N)[C@H](O)[C@H](C)O1 [Doxorubicin] | Positive | –
C#Cc1cccc(Nc2ncnc3cc(OCCOC)c(OCCOC)cc23)c1 [Tarceva] | Negative | –
CS(=O)(=O)CCNCc1ccc(-c2ccc3ncnc(Nc4ccc(OCc5cccc(F)c5)c(Cl)c4)c3c2)o1 [Tykerb] | Negative | –
CCN(CC)CCNC(=O)c1c(C)[nH]c(/C=C2\C(=O)Nc3ccc(F)cc32)c1C [Sutent, sunitinib] | Positive | mentioned in the prescribing information
